Key:
[1] = Human liver microsome intrinsic clearance; conditions: human liver microsomes
MRC5 cells = test: MRC5 cell toxicity; format: cell-based; conditions: in words
Mouse plasma stability = format: in vitro ADME; conditions: in words
[2] = In vivo pharmacokinetics of 29d, 10 mg/kg ip; set-up: species or system BALB/c mice
Caco-2 = Caco-2 permeability and efflux assay; format: in vitro ADME

| Molecule | HLM Clint [1] [μg/min/mg protein] | toxicity in mammalian cells (MRC5 cells) | also measured |
| --- | --- | --- | --- |
| 3-(5-(Piperidin-1-yl)-1H-pyrrolo[2,3-b]pyridin-3-yl)benzonitrile [24c] | 44 |  |  |
| 5-(1-methyl-1H-pyrazol-4-yl)-3-(4-(trifluoromethyl)phenyl)-1H-pyrrolo[2,3-b]pyridine [13i] | 66 |  |  |
| Cn1cc(-c2cnc3[nH]cc(-c4cccc([N+](=O)[O-])c4)c3c2)cn1 [13t, 5-(1-Methyl-1H-pyrazol-4-yl)-3-(3-nitrophenyl)-1H-pyrrolo[2,3-b]pyridine] |  | showed signs of toxicity in mammalian cells |  |
| Cn1cc(-c2cnc3[nH]cc(-c4ccc(O)cc4)c3c2)cn1 [13u, 4-(5-(1-Methyl-1H-pyrazol-4-yl)-1H-pyrrolo[2,3-b]pyridin-3-yl)phenol] |  | showed signs of toxicity in mammalian cells |  |
| N#Cc1cccc(-c2c[nH]c3ncc(-c4cnn(C5CCNCC5)c4)cc23)c1 [29d] |  | non-toxic in MRC5 cells | stability in mouse plasma (Mouse plasma stability): stable in mouse plasma; brain penetration [2]: not appreciably brain-penetrant; Mean brain concentration ([2]; sparse sampling, 0.5 h, LLOQ = 9.77 ng/mL): <LLOQ; Caco-2 efflux / transporter substrate (Caco-2): likely a substrate for P-gp; Caco-2 permeability (Caco-2): low permeability |

Reference: PMC8412142 (Journal of medicinal chemistry, 2021)
